# From PubChem BioAssay (NCI)
#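 Step 1: Grow cells in 96-well plates. Step 2: Expose to compound for 48 hours at 5 concentrations. Step 3: Interpolate endpoints linearly; if unreached, use highest concentration. Here, GI50 denotes the concentration required for 50% inhibition of growth. The concentration for full growth arrest is given as TGI.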
# Tests used:
# Assay in all cases: NCI-60 cell line screen, 48 h
# HCC-2998 colon = test system: HCC-2998 colon
# HCT-15 colon = test system: HCT-15 colon
# KM12 colon = test system: KM12 colon
# DU-145 prostate = test system: DU-145 prostate
# TK-10 renal = test system: TK-10 renal
# SF-295 CNS = test system: SF-295 CNS
# SN12C renal = test system: SN12C renal
# NCI-H460 lung = test system: NCI-H460 lung
# U251 CNS = test system: U251 CNS
# SF-539 CNS = test system: SF-539 CNS
# A549 NSCLC = test system: A549 NSCLC
# LOX IMVI melanoma = test system: LOX IMVI melanoma
# SK-MEL-5 melanoma = test system: SK-MEL-5 melanoma
# EKVX NSCLC = test system: EKVX NSCLC
# RXF 393 renal = test system: RXF 393 renal
# UACC-62 melanoma = test system: UACC-62 melanoma
# NCI-H23 lung = test system: NCI-H23 lung
# NCI-H226 lung = test system: NCI-H226 lung
# PC-3 prostate = test system: PC-3 prostate
# SF-268 CNS = test system: SF-268 CNS
# MCF7 breast = test system: MCF7 breast
# A498 renal = test system: A498 renal
# NCI/ADR-RES ovarian = test system: NCI/ADR-RES ovarian
# MDA-MB-231 breast = test system: MDA-MB-231 breast
# OVCAR-8 ovarian = test system: OVCAR-8 ovarian
# UACC-257 melanoma = test system: UACC-257 melanoma
# RPMI-8226 leukemia = test system: RPMI-8226 leukemia
# OVCAR-3 ovarian = test system: OVCAR-3 ovarian
# SNB-19 CNS = test system: SNB-19 CNS
# SK-MEL-2 melanoma = test system: SK-MEL-2 melanoma
# CAKI-1 renal = test system: CAKI-1 renal
# OVCAR-5 ovarian = test system: OVCAR-5 ovarian
# SW-620 colon = test system: SW-620 colon
# ACHN renal = test system: ACHN renal
# MDA-MB-435 = test system: MDA-MB-435
# OVCAR-4 ovarian = test system: OVCAR-4 ovarian
# T-47D breast = test system: T-47D breast
# SNB-75 CNS = test system: SNB-75 CNS
# SK-MEL-28 melanoma = test system: SK-MEL-28 melanoma
# SK-OV-3 ovarian = test system: SK-OV-3 ovarian
# HT29 colon = test system: HT29 colon
# COLO 205 colon = test system: COLO 205 colon
# HOP-92 NSCLC = test system: HOP-92 NSCLC
# NCI-H522 lung = test system: NCI-H522 lung
# HCT-116 colon = test system: HCT-116 colon
# HS 578T breast = test system: HS 578T breast
# IGROV1 ovarian = test system: IGROV1 ovarian
# CCRF-CEM leukemia = test system: CCRF-CEM leukemia
# 786-0 renal = test system: 786-0 renal
# M14 melanoma = test system: M14 melanoma
# HOP-62 NSCLC = test system: HOP-62 NSCLC
# UO-31 renal = test system: UO-31 renal
# SR leukemia = test system: SR leukemia
# BT-549 breast = test system: BT-549 breast
# K-562 leukemia = test system: K-562 leukemia
compound,measurement,setting,value
CCC(C)(C)c1cc(O)c(C(C)(C)CC)cc1O,GI50,HCC-2998 colon,2.3 µM
same,TGI,HCC-2998 colon,5.36 µM
same,GI50,HCT-15 colon,3.66 µM
same,TGI,HCT-15 colon,15.1 µM
same,GI50,KM12 colon,3.52 µM
same,TGI,KM12 colon,12.6 µM
same,GI50,DU-145 prostate,4.39 µM
same,TGI,DU-145 prostate,17.1 µM
same,GI50,TK-10 renal,2.46 µM
same,TGI,TK-10 renal,8.19 µM
same,GI50,SF-295 CNS,2.25 µM
same,TGI,SF-295 CNS,5.18 µM
same,GI50,SN12C renal,3.2 µM
same,TGI,SN12C renal,16.4 µM
same,GI50,NCI-H460 lung,2250 nM
same,TGI,NCI-H460 lung,6.53 µM
same,GI50,U251 CNS,2.18 µM
same,TGI,U251 CNS,6.23 µM
same,GI50,SF-539 CNS,2.7 µM
same,TGI,SF-539 CNS,9.23 µM
same,GI50,A549 NSCLC,3.2 µM
same,TGI,A549 NSCLC,11.9 µM
same,GI50,LOX IMVI melanoma,2.1 µM
same,TGI,LOX IMVI melanoma,4.62 µM
same,GI50,SK-MEL-5 melanoma,2.2 µM
same,TGI,SK-MEL-5 melanoma,5.26 µM
same,GI50,EKVX NSCLC,2540 nM
same,TGI,EKVX NSCLC,14.6 µM
same,GI50,RXF 393 renal,2690 nM
same,TGI,RXF 393 renal,7.25 µM
same,GI50,UACC-62 melanoma,2.28 µM
same,TGI,UACC-62 melanoma,6.84 µM
same,GI50,NCI-H23 lung,3.18 µM
same,TGI,NCI-H23 lung,12.4 µM
same,GI50,NCI-H226 lung,3.63 µM
same,TGI,NCI-H226 lung,15.2 µM
same,GI50,PC-3 prostate,3.43 µM
same,TGI,PC-3 prostate,13.2 µM
same,GI50,SF-268 CNS,3.92 µM
same,TGI,SF-268 CNS,15.6 µM
same,GI50,MCF7 breast,2460 nM
same,TGI,MCF7 breast,11.6 µM
same,GI50,A498 renal,0.732 µM
same,TGI,A498 renal,8.5 µM
same,GI50,NCI/ADR-RES ovarian,2960 nM
same,TGI,NCI/ADR-RES ovarian,11.3 µM
same,GI50,MDA-MB-231 breast,2.35 µM
same,TGI,MDA-MB-231 breast,8.04 µM
same,GI50,OVCAR-8 ovarian,4.48 µM
same,TGI,OVCAR-8 ovarian,23.5 µM
same,GI50,UACC-257 melanoma,3.44 µM
same,TGI,UACC-257 melanoma,12.1 µM
same,GI50,RPMI-8226 leukemia,2410 nM
same,TGI,RPMI-8226 leukemia,9.09 µM
same,GI50,OVCAR-3 ovarian,2780 nM
same,TGI,OVCAR-3 ovarian,7.54 µM
same,GI50,SNB-19 CNS,2.69 µM
same,TGI,SNB-19 CNS,12.6 µM
same,GI50,SK-MEL-2 melanoma,1850 nM
same,TGI,SK-MEL-2 melanoma,4.33 µM
same,GI50,CAKI-1 renal,2440 nM
same,TGI,CAKI-1 renal,7.74 µM
same,GI50,OVCAR-5 ovarian,4.97 µM
same,TGI,OVCAR-5 ovarian,17.6 µM
same,GI50,SW-620 colon,2350 nM
same,TGI,SW-620 colon,6.89 µM
same,GI50,ACHN renal,4.62 µM
same,TGI,ACHN renal,16.1 µM
same,GI50,MDA-MB-435,2620 nM
same,TGI,MDA-MB-435,10.9 µM
same,GI50,OVCAR-4 ovarian,3.26 µM
same,TGI,OVCAR-4 ovarian,14.1 µM
same,GI50,T-47D breast,4.56 µM
same,TGI,T-47D breast,19.5 µM
same,GI50,SNB-75 CNS,3.14 µM
same,TGI,SNB-75 CNS,16.5 µM
same,GI50,SK-MEL-28 melanoma,2820 nM
same,TGI,SK-MEL-28 melanoma,10.9 µM
same,GI50,SK-OV-3 ovarian,4.41 µM
same,TGI,SK-OV-3 ovarian,14.9 µM
same,GI50,HT29 colon,2.13 µM
same,TGI,HT29 colon,5.27 µM
same,GI50,COLO 205 colon,2.42 µM
same,TGI,COLO 205 colon,5.28 µM
same,GI50,HOP-92 NSCLC,1.63 µM
same,TGI,HOP-92 NSCLC,5.62 µM
same,GI50,NCI-H522 lung,1.98 µM
same,TGI,NCI-H522 lung,6.03 µM
COC(=O)c1cc(NC(=O)c2cc(NC(=O)c3cc([N+](=O)[O-])n(C)c3)cn2C)cn1C,GI50,HCC-2998 colon,4.26 µM
same,TGI,HCC-2998 colon,38.2 µM
same,GI50,HCT-15 colon,44.8 µM
same,TGI,HCT-15 colon,> 100 µM
same,GI50,KM12 colon,80.8 µM
same,TGI,KM12 colon,> 100 µM
same,GI50,TK-10 renal,46.7 µM
same,TGI,TK-10 renal,> 100 µM
same,GI50,HCT-116 colon,31.8 µM
same,TGI,HCT-116 colon,> 100 µM
same,GI50,HS 578T breast,> 100 µM
same,TGI,HS 578T breast,> 100 µM
same,GI50,SF-295 CNS,32.8 µM
same,TGI,SF-295 CNS,> 100 µM
same,GI50,SN12C renal,> 100 µM
same,TGI,SN12C renal,> 100 µM
same,GI50,IGROV1 ovarian,> 100 µM
same,TGI,IGROV1 ovarian,> 100 µM
same,GI50,NCI-H460 lung,> 100000 nM
same,TGI,NCI-H460 lung,> 100 µM
same,GI50,CCRF-CEM leukemia,54 µM
same,TGI,CCRF-CEM leukemia,> 100 µM
same,GI50,U251 CNS,32.7 µM
same,TGI,U251 CNS,> 100 µM
same,GI50,SF-539 CNS,56.1 µM
same,TGI,SF-539 CNS,> 100 µM
same,GI50,A549 NSCLC,64.1 µM
same,TGI,A549 NSCLC,> 100 µM
same,GI50,LOX IMVI melanoma,10.7 µM
same,TGI,LOX IMVI melanoma,85.9 µM
same,GI50,SK-MEL-5 melanoma,5.03 µM
same,TGI,SK-MEL-5 melanoma,59 µM
same,GI50,EKVX NSCLC,> 100000 nM
same,TGI,EKVX NSCLC,> 100 µM
same,GI50,RXF 393 renal,> 100000 nM
same,TGI,RXF 393 renal,> 100 µM
same,GI50,786-0 renal,> 100 µM
same,TGI,786-0 renal,> 100 µM
same,GI50,UACC-62 melanoma,23.8 µM
same,TGI,UACC-62 melanoma,> 100 µM
same,GI50,NCI-H23 lung,24.5 µM
same,TGI,NCI-H23 lung,> 100 µM
same,GI50,NCI-H226 lung,39.9 µM
same,TGI,NCI-H226 lung,> 100 µM
same,GI50,PC-3 prostate,> 100 µM
same,TGI,PC-3 prostate,> 100 µM
same,GI50,M14 melanoma,15.2 µM
same,TGI,M14 melanoma,> 100 µM
same,GI50,SF-268 CNS,> 100 µM
same,TGI,SF-268 CNS,> 100 µM
same,GI50,MCF7 breast,> 100000 nM
same,TGI,MCF7 breast,> 100 µM
same,GI50,A498 renal,84 µM
same,TGI,A498 renal,> 100 µM
same,GI50,HOP-62 NSCLC,6.4 µM
same,TGI,HOP-62 NSCLC,> 100 µM
same,GI50,NCI/ADR-RES ovarian,> 100000 nM
same,TGI,NCI/ADR-RES ovarian,> 100 µM
same,GI50,UO-31 renal,> 100 µM
same,TGI,UO-31 renal,> 100 µM
same,GI50,MDA-MB-231 breast,51 µM
same,TGI,MDA-MB-231 breast,> 100 µM
same,GI50,OVCAR-8 ovarian,> 100 µM
same,TGI,OVCAR-8 ovarian,> 100 µM
same,GI50,UACC-257 melanoma,> 100 µM
same,TGI,UACC-257 melanoma,> 100 µM
same,GI50,RPMI-8226 leukemia,> 100000 nM
same,TGI,RPMI-8226 leukemia,> 100 µM
same,GI50,OVCAR-3 ovarian,> 100000 nM
same,TGI,OVCAR-3 ovarian,> 100 µM
same,GI50,SNB-19 CNS,34.2 µM
same,TGI,SNB-19 CNS,> 100 µM
same,GI50,SK-MEL-2 melanoma,> 100000 nM
same,TGI,SK-MEL-2 melanoma,> 100 µM
same,GI50,CAKI-1 renal,> 100000 nM
same,TGI,CAKI-1 renal,> 100 µM
same,GI50,OVCAR-5 ovarian,30.9 µM
same,TGI,OVCAR-5 ovarian,> 100 µM
same,GI50,SW-620 colon,> 100000 nM
same,TGI,SW-620 colon,> 100 µM
same,GI50,ACHN renal,2.53 µM
same,TGI,ACHN renal,53.5 µM
same,GI50,MDA-MB-435,> 100000 nM
same,TGI,MDA-MB-435,> 100 µM
same,GI50,T-47D breast,> 100 µM
same,TGI,T-47D breast,> 100 µM
same,GI50,SR leukemia,39.3 µM
same,TGI,SR leukemia,> 100 µM
same,GI50,SK-OV-3 ovarian,45.3 µM
same,TGI,SK-OV-3 ovarian,> 100 µM
same,GI50,HT29 colon,7.74 µM
same,TGI,HT29 colon,31 µM
same,GI50,COLO 205 colon,45.9 µM
same,TGI,COLO 205 colon,> 100 µM
same,GI50,BT-549 breast,40.1 µM
same,TGI,BT-549 breast,> 100 µM
same,GI50,K-562 leukemia,> 100 µM
same,TGI,K-562 leukemia,> 100 µM
same,GI50,HOP-92 NSCLC,13.2 µM
same,TGI,HOP-92 NSCLC,85.2 µM
same,GI50,NCI-H522 lung,58.9 µM
same,TGI,NCI-H522 lung,> 100 µM
